Holding throughout (type): in vivo, mouse
Data set [1] has as its system ribitol, ribitol-5P and CDP-ribitol levels in heart and quadriceps. Nature of the data set: LC/MS-MS quantification of ribitol, ribitol-5P and CDP-ribitol in muscle tissues of P448L mice. The settings on record: 5% ribitol 1 month. The procedure:
Ribitol was purchased from Sigma (A5502 Adonitol, ≥98%, Sigma, St. Louis) and dissolved in drinking water to the final concentration of 5% or 10%. […] mice aged at 4 weeks were treated with 5% ribitol drinking water for 1 month and […] mice aged at 7 weeks were treated with 5% ribitol drinking water for 3 months and 6 months. All the mice were randomly assigned to either treatment or control groups. And a minimum number of 4 mice were used for each group. No animal was excluded. […] female breeders were given 10% ribitol in drinking water during pregnancy, and pups continued to be treated with 10% ribitol in drinking water until they were euthanized at 19 weeks of age. Untreated age-matched […] and wild-type C57BL/6 mice were used as controls. The animals were terminated at the end of each treatment time point and tissues including heart, diaphragm, TA, quadriceps, liver, spleen and kidney were collected for analyses. Ribitol was purchased from Sigma (A5502). […] The supernatants were removed, transferred to individual wells of 96-well plate and analyzed by LC/MS-MS. […] The metabolites were analyzed using electrospray ionization mass spectrometry operated in positive ion mode, ESI+. Compounds concentration in tissue samples were determined based on standard curves prepared by serial dilutions (200-0.01 μM) of each of the compound in MeOH:ACN (1:1).

Data set [2] deals with FKRP P448L mutant mice. As to the kind of experiment: Histopathological and morphometric analysis (H&E, Masson's Trichrome) of muscles of P448L mice. The procedure:
Ribitol was purchased from Sigma (A5502 Adonitol, ≥98%, Sigma, St. Louis) and dissolved in drinking water to the final concentration of 5% or 10%. […] mice aged at 4 weeks were treated with 5% ribitol drinking water for 1 month and […] mice aged at 7 weeks were treated with 5% ribitol drinking water for 3 months and 6 months. All the mice were randomly assigned to either treatment or control groups. And a minimum number of 4 mice were used for each group. No animal was excluded. […] female breeders were given 10% ribitol in drinking water during pregnancy, and pups continued to be treated with 10% ribitol in drinking water until they were euthanized at 19 weeks of age. Untreated age-matched […] and wild-type C57BL/6 mice were used as controls. The animals were terminated at the end of each treatment time point and tissues including heart, diaphragm, TA, quadriceps, liver, spleen and kidney were collected for analyses. Frozen tissues were processed for hematoxylin and eosin (H&E) and Masson's Trichrome staining following standard procedures. Muscle cross-sectional fiber equivalent diameter was determined from tibialis anterior and quadriceps stained with H&E using MetaMorph v7.7 Software (Molecular Devices). Percentage of centrally nucleated myofibers were manually quantified from the same tissue sections stained with H&E. Fibrotic area represented by blue staining in the Masson's Trichrome stained sections was quantified from heart, diaphragm, tibialis anterior and quadriceps using ImageJ software. For all the morphometric analyses, a total of 300 to 400 fibers from two representative 20× magnification images per each muscle per animal were used.

In data set [3] the test system is FKRP and LARGE transcripts. Nature of the data set: Quantitative real-time PCR of FKRP and LARGE transcripts in muscles of P448L mice. As to conditions: 5% ribitol, 3 months (FIG. 11b); cardiac muscle, limb muscle, diaphragm. The procedure: Tissues were collected from heart, diaphragm and tibialis anterior. RNA was extracted using TRIzol (Invitrogen) following the supplied protocol. Final RNA pellet was re-suspended in 20 μl RNAse-nuclease free water. Final RNA concentration was determined using Nanodrop 2000c. One μg of RNA was subsequently converted to cDNA using the High-Capacity RNA-to-cDNA™ Kit (Applied Biosystems) following the supplied protocol. cDNA was then used for quantitative real-time PCR using the mouse FKRP-FAM (Mm00557870_m1) and LARGE-FAM (Mm00521885 ml) taqman assay with primer limited GAPDH-VIC (Mm99999915_g1) as the internal control and TaqMan® Universal Master Mix II, with UNG (Life Technologies). […] Results of FKRP and LARGE transcript were calculated and expressed as 2^-ΔΔCt and compared across tissues and animals.

For data set [4], the system named is FKRP P448L mutant mice. As to the kind of experiment: Ribitol toxicity evaluation: body weight, histology of liver, kidney and spleen, serum biochemical markers. The procedure:
All animal studies were approved by the Institutional Animal Care and Use Committee (IACUC) of Carolinas Medical Center. All mice were housed in the vivarium of Carolinas Medical Center following animal care guidelines of the institute. Animals were ear tagged prior to group assignment. Food and water were available ad libitum during all phase of the study. Body weight was measured from 6 weeks to 19 weeks of age.
Ribitol was purchased from Sigma (A5502 Adonitol, ≥98%, Sigma, St. Louis) and dissolved in drinking water to the final concentration of 5% or 10%. P448L mice aged at 4 weeks were treated with 5% ribitol drinking water for 1 month and P448L mice aged at 7 weeks were treated with 5% ribitol drinking water for 3 months and 6 months. All the mice were randomly assigned to either treatment or control groups. And a minimum number of 4 mice were used for each group. No animal was excluded. P448L female breeders were given 10% ribitol in drinking water during pregnancy, and pups continued to be treated with 10% ribitol in drinking water until they were euthanized at 19 weeks of age. Untreated age-matched P448L and wild-type C57BL/6 mice were used as controls. The animals were terminated at the end of each treatment time point and tissues including heart, diaphragm, TA, quadriceps, liver, spleen and kidney were collected for analyses.
Frozen tissues were processed for hematoxylin and eosin (H&E) and Masson's Trichrome staining following standard procedures. Muscle cross-sectional fiber equivalent diameter was determined from tibialis anterior and quadriceps stained with H&E using MetaMorph v7.7 Software (Molecular Devices). Percentage of centrally nucleated myofibers were manually quantified from the same tissue sections stained with H&E. Fibrotic area represented by blue staining in the Masson's Trichrome stained sections was quantified from heart, diaphragm, tibialis anterior and quadriceps using ImageJ software. For all the morphometric analyses, a total of 300 to 400 fibers from two representative 20× magnification images per each muscle per animal were used.

Setting [5] is: 10% ribitol from pregnancy to 19 weeks.

These results are taken from patent publication US20200061092A1, “METHODS AND COMPOSITIONS FOR TREATING DISORDERS ASSOCIATED WITH MUSCLE WEAKNESS” (priority 2018, published 2020).

Take `OC[C@@H](O)[C@@H](O)[C@@H](O)CO` [ribitol]: the “Levels of ribitol, ribitol-5P and CDP-ribitol vs untreated P448L” value in data set [1] (heart and quadricep) is reported as “increased levels”. In addition, the “CDP-ribitol levels, treated vs untreated” value in data set [1] (heart and quadriceps) was “at least 4 fold”. Moreover, in the data set on FKRP P448L mutant mice [2] (5% ribitol, 3 and 6 months), the “Fibrotic area in cardiac muscle vs untreated” value is listed as “significant reduction”; the “Number of fibers with small diameters (TA and quadriceps)” value is given as “statistically significant decrease”; the “Percentage of CNF (TA and quadriceps) vs untreated” value is reported as “No significant difference”. Further, the “Areas of fibrotic tissue (Masson's Trichrome) vs untreated” value in the data set on FKRP P448L mutant mice [2] (5% ribitol, 3 and 6 months, limb muscles) is recorded as “significantly decreased”. Also, in the data set on FKRP P448L mutant mice [2] (5% ribitol, 3 month treatment), the “Fibrotic tissue in diaphragm (% of tissue cross-section area)” value was found to be 11%. In addition, the “Fibrotic tissue in diaphragm (% of tissue cross-section area)” value in the data set with FKRP P448L mutant mice [2] (5% ribitol, 6 month treatment) was determined as 18%. Also, in the data set with FKRP P448L mutant mice [2] (setting [5]), the “Centrally nucleated fibers (CNF) in TA vs untreated” value is given as “significantly fewer”; the “Fibrosis in cardiac muscle and diaphragm” value is “reduction in fibrosis was significant in cardiac muscle, and most prominent in the diaphragm”. In data set [3], the “FKRP and LARGE transcript levels, treated vs untreated” value is on record as “No statistically significant difference”. Further, in the data set on FKRP P448L mutant mice [4] (5% ribitol, 3 or 6 months), the “Histology of liver, kidney and spleen (H&E)” value was “normal structure without degeneration and inflammation”. Also, in the data set with FKRP P448L mutant mice [4] (5% ribitol, 6 months), the “Serum markers of liver and kidney function (ALP, ALT, t-Bil, c-Bil, unc-Bil, BUN, Crea), treated vs untreated” value is “No statistical significance”; the “Serum triglycerides (TRG) and glucose (GLU), treated vs untreated” value is on record as “similar”. Besides, the “Body weight vs age-matched untreated P448L” value in the data set with FKRP P448L mutant mice [4] (10% ribitol from embryonic stage or 5% ribitol from 7 weeks of age, all time points) was “No significant difference”. For the same compound, the “Effect on pregnancy, embryo development, body weight and overall behavior” value in the data set with FKRP P448L mutant mice [4] (oral ribitol from pregnancy to adult) is reported as “does not affect”.
